Experimental data as given in US20240100023A1, “Compositions and Methods For Treating Spinal Cord Injuries” (priority 2020, published 2024).

Test system: adult rats
Assay: Phrenic burst amplitude after C2 spinal cord hemisection (C2Hx)
Type: in vivo, Rat
Details: two weeks after C2Hx, 15 mg/k, i.v.
Description: In a preliminary examination of the therapeutic potential of ampakines for treating SCI, Wollman and coworkers (2020^16) reported that ampakines may stimulate phrenic activity after incomplete cervical spinal cord injury (SCI) in anesthetized rats. […] To competently address the role of ampakines in alleviating neural and motor function deficits in SCI subjects, Applicants present herein a range of findings, illustrating a diverse array of potent ampakine activities effective for SCI treatment. Among these findings, two low impact ampakines, CX717 and CX1739, potently stimulate diaphragm muscle activation and breathing in freely moving, non-anesthetized rats following SCI. ^16 Wollman L B, Streeter K A, Fusco Gonzalez-Rothi E J, Sandhu M S, Greer J J, Fuller D D. Exp Neural. 2020 December; 334:113 doi: 10.1016/j.expneurol.2020.113465. Epub 2020 September PMID: 32949571.
Exemplifying the efficacy of combining Ampakine SCI treatment with secondary therapeutic intervention, Applicants determined in a predictive animal model that pairing ampakine treatment with a single bout of acute hypoxia (5-min, arterial partial pressure of O2˜50 mmHg) beneficially impacts phrenic bursting, with some rats showing a large facilitation that exceeds the response compared to ampakine-only treated subjects. […]

With `O=C(c1ccc2nonc2c1)N1CCOCC1` [CX717, 1-(benzofurazan-5-ylcarbonyl)morpholine] the “Increase of contralateral (CL) phrenic burst amplitude” value was 47±26 % BL and the “Increase of ipsilateral (IL) phrenic burst amplitude” value was 61±46 % baseline, BL.
